According to US11633413B2, “Composition for preventing or improving menopausal symptom comprising novel ginsenoside” (AMOREPACIFIC CORPORATION, priority 2019, dated 2023):
“Also recorded” adds a separate entry of the source.

How the values were obtained:
Format in all cases: cell-based
estrogen receptor ERα = target: T1, estrogen receptor ERα (Homo sapiens, UniProt P03372); test: human ERα reporter assay (ERE-luc, Indigo Bioscience #IB00421-48P); details: for activity of ERα: Test Example 3, same manner as Test Example 1, FIG. 16; for increase of the activity of the estrogen receptor ERα: Test Example 1, 10 μg/mL for 24 hours, FIG. 11, FIG. 14
T1 sequence (P03372 1-595): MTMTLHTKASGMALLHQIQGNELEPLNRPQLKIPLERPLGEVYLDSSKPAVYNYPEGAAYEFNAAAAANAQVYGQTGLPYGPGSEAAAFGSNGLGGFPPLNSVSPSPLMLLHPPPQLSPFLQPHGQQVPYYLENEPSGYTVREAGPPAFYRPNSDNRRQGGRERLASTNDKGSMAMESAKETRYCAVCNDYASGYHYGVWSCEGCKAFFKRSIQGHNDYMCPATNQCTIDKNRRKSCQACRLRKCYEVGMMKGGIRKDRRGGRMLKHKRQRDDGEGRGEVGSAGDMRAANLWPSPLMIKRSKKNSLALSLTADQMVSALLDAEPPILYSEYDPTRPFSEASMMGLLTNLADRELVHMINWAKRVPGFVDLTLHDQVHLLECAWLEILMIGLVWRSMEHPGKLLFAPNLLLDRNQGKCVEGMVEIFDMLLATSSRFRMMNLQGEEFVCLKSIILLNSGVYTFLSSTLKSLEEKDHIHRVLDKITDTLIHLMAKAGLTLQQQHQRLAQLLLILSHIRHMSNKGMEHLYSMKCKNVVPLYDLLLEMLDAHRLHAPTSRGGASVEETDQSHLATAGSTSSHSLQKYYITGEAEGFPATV
Protocol: (§1) After treating each of the novel ginsenoside GS #10 according to an exemplary embodiment of the present disclosure and other ginsenosides GS #01 to GS #06 isolated from the ginseng seed extract with a human ERα/β reporter assay panel (#IB00421-48P; Indigo Bioscience) at a concentration of 10 μg/mL for 24 hours, the increase of the activity of the estrogen receptors ERα and ERβ was analyzed. The #IB00421-48P kit comprises cells in which ERα and ERβ are overexpressed, respectively, and comprises the ERE-luc reporter gene. If the activity of the ER is increased by treating with the example or a comparative example, ERα and ERβ bind to ERE, thereby inducing the expression of luciferase. Therefore, the activity of ERα and ERβ can be measured by measuring the light intensity of the cells. As the comparative example, a methanol extract of ginseng seed (seeds of Panax ginseng) used for the isolation of the ginsenosides in Example 1 was used.
(§2) It is reported that, although the increased activity of the estrogen receptors ERα and ERβ can lead to alleviation of menopausal symptoms, ERs are overexpressed in more than 70% of breast cancer cells, mainly due to increased ERα (ESR1) (see Deroo B J et al., J Clin Invest 116:561 (2006)).
(§3) The effect of preventing or improving menopausal symptoms of the novel ginsenoside […] according to an exemplary embodiment of the present disclosure was compared with that of ginsenosides Rg1, Rg3 and Rb1 (purchased from Sigma), which are red ginseng marker compounds, as comparative examples. Ginsenoside Rg3 has the following chemical structure. The experiment was performed in the same manner as in Test Example 1.

estrogen receptor ERβ = estrogen receptor ERβ (Homo sapiens, UniProt Q92731); test: human ERβ reporter assay (ERE-luc, Indigo Bioscience #IB00421-48P); details: for activity of ERβ: same manner as Test Example 1
Protocol: as §1, §2, §3

[1] = test system: MCF-7 breast cancer cells; test: growth of MCF-7 breast cancer cells (cell counting); details: 10 μg/mL for 48 hours; number of cells counted; FIG. 15
SH-SY5Y cells = test: cytotoxicity, cell counting kit (CCK-8); details: 0.1, 1, 5, 10, 20 and 50 μM, FIG. 18
Protocol: Cell growth in the presence of the novel ginsenoside GS #10 according to an exemplary embodiment of the present disclosure was evaluated using a cell counting kit (CCK-8) in order to exclude the possibility that the ginsenoside may affect the effect of preventing or improving menopausal symptoms through cytotoxic activity. The experimental method is as follows.
10 μL of a CCK-8 reagent was added to SH-SY5Y cells (Dojindo, Md., USA) in a 96-well plate and left at 37° C. for 2 hours. Then, absorbance was measured at 450 nm. Cell viability was represented as the percentage (%) of the absolute optical density of each sample relative to an untreated sample. The concentration of the novel ginsenoside GS #10 according to an exemplary embodiment of the present disclosure in the medium in which the cells were cultured was 0.1, 1, 5, 10, 20 and 50 μM, respectively.

Chain of estrogen receptor ERβ (Q92731 whole entry): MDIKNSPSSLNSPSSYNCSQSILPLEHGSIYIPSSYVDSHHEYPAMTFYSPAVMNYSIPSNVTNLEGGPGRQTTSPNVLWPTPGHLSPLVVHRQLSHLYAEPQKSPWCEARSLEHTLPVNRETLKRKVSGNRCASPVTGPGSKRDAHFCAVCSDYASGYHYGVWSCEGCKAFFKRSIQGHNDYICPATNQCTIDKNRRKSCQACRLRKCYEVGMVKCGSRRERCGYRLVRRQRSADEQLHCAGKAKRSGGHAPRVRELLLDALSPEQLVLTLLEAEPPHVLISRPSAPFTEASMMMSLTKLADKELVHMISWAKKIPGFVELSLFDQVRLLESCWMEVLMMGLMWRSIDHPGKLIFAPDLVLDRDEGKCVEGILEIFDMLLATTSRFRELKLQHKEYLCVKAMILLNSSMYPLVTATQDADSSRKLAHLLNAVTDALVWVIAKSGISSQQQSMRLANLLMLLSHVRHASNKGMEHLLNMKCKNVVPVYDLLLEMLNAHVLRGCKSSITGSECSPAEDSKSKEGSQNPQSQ

| Structure (SMILES) | activity of ERα (estrogen receptor ERα) | activity of ERβ (estrogen receptor ERβ; Test Example 3, FIG. 17) | growth of MCF-7 breast cancer cells (side effect of promoting cancer cell growth) [1] | increase of the activity of the estrogen receptor ERα (estrogen receptor ERα) | other results |
| --- | --- | --- | --- | --- | --- |
| CC(C)=CCC[C@](C)(O[C@@H]1O[C@H](CO)[C@@H](O)[C@H](O)[C@H]1O)[C@H]1CC[C@]2(C)[C@@H]1[C@H](O)C[C@@H]1[C@@]3(C)CC[C@H](O)C(C)(C)[C@@H]3[C@@H](O[C@@H]3O[C@H](CO)[C@@H](O)[C@H](O)[C@H]3O)C[C@]12C [GS #01, ginsenoside Rg1] | activated the estrogen receptors to some extent | – | – | – | – |
| CC(C)=CCC[C@](C)(O)[C@H]1CC[C@]2(C)[C@@H]1[C@H](O)C[C@@H]1[C@@]3(C)CC[C@H](O[C@@H]4O[C@H](CO)[C@@H](O)[C@H](O)[C@H]4O[C@@H]4O[C@H](CO)[C@@H](O)[C@H](O)[C@H]4O)C(C)(C)[C@@H]3CC[C@]12C [Rg3, Ginsenoside Rg3, reference compound] | activated the estrogen receptors to some extent | activated the estrogen receptors to some extent | – | – | – |
| CC1(C)C(=O)CC[C@@]2(C)C1[C@@H](O[C@H]1OC(CO)[C@H](O)C(O)C1O[C@H]1OC(CO)[C@H](O)C(O)C1O)C[C@]1(C)C2C[C@@H](O)C2C([C@]3(C)CC[C@H](C(C)(C)O)O3)CC[C@]21C (stereo partly drawn) [GS #10, (20S,24R)-6-O-β-D-glucopyranosyl(1→2)-β-D-glucopyranoside-dammar-3-one-20,24-epoxy-6a,12b,25-triol] | not higher than Rg1 and Rb1 | 136% | did not show such a side effect | slightly increased the activity of ERα; also recorded: had an effect of increasing the activity | increase of the activity of the estrogen receptor ERβ (estrogen receptor ERβ; Test Example 1, 10 μg/mL for 24 hours, FIG. 12, FIG. 14): activated ERβ; also recorded: had an effect of increasing the activity; activity ratio of ERβ to ERα compared with red ginseng marker compounds (estrogen receptor ERβ; Test Example 3, FIG. 16 and FIG. 17): higher than the ginsenosides Rb1, Rg1 and Rg3; activity of ERβ as compared to the ginsenosides Rg1 and Rb1 (estrogen receptor ERβ; Test Example 3, FIG. 17): at least 3 times; cytotoxicity (cell viability) (SH-SY5Y cells): did not exhibit cytotoxicity up to 50 μM |
| C[C@]12CC[C@@H]3c4ccc(O)cc4CC[C@H]3[C@@H]1CC[C@@H]2O [17β-estradiol, 17β-Estradiol, reference compound] | – | – | promoted the growth of the breast cancer cells | – | – |
| CC(C)=CCC[C@](C)(O[C@@H]1O[C@H](CO[C@@H]2O[C@H](CO)[C@@H](O)[C@H](O)[C@H]2O)[C@@H](O)[C@H](O)[C@H]1O)[C@H]1CC[C@]2(C)[C@@H]1[C@H](O)C[C@@H]1[C@@]3(C)CC[C@H](O[C@@H]4O[C@H](CO)[C@@H](O)[C@H](O)[C@H]4O[C@@H]4O[C@H](CO)[C@@H](O)[C@H](O)[C@H]4O)C(C)(C)[C@@H]3CC[C@]12C [GS #05, ginsenoside Rb1] | activated the estrogen receptors to some extent | – | – | slightly increased the activity of ERα | – |
| CC(C)=CCC[C@](C)(O[C@@H]1O[C@H](CO)[C@@H](O)[C@H](O)[C@H]1O)[C@H]1CC[C@]2(C)[C@@H]1[C@H](O)C[C@@H]1[C@@]3(C)CC[C@H](O)C(C)(C)[C@@H]3[C@@H](O[C@@H]3O[C@H](CO)[C@@H](O)[C@H](O)[C@H]3O[C@@H]3O[C@@H](C)[C@H](O)[C@@H](O)[C@H]3O)C[C@]12C [GS #03, ginsenoside Re] | – | – | – | slightly increased the activity of ERα | – |
